From patent US7815907B2, “Antibodies to insulin-like growth factor I receptor” (Amgen Fremont Inc., priority 2001, dated 2010)

Columns and labels:
IGF-IR = IGF-IR (Homo sapiens, UniProt P08069); assay: Species crossreactivity by immunoprecipitation/Western blot; format: binding; parameters: on cells from a variety of animals; endogenous in cells; conditions: immunoprecipitation, antibody 1 μg/ml
Procedure: (§1) To perform immunoprecipitation experiments, we plated cells in DMEM high glucose media supplemented with L-glutamine (0.29 mg/ml), 10% heat-inactivated FBS, and 500 μg/ml each of geneticin, penicillin and streptomycin to 50% confluence in T25 flasks. We then added 100 μl of an antibody of the invention in Hank's buffered saline solution (HBSS; Gibco BRL) at a concentration of 1 μg/ml. We incubated the plates for 30 minutes at 37° C. in an incubator and then stimulated the cells with IGF-I at 100 ng/ml for 10 minutes at room temperature. We lysed the cells in RIPA buffer (Harlow and Lane, supra) and immunoprecipitated IGF-IR with 2 μg of pan-specific SC-713 anti-IGF-IR antibody (Santa Cruz) plus protein A agarose beads for 1 hour at 4° C. We pelleted the beads and wash three times with PBS/T (PBS+0.1% Tween-20) and then boiled the beads in 40 μl Laemmli buffer containing 5% βME.
(§2) The samples prepared as described above were then analyzed by Western blot. We loaded 12 μl of each sample per lane on 4-10% gradient Novex™ gels run with 1×MES buffer (Novex™). Gels were run at 150V for 1 hour or at 200V for approximately 30 minutes. We then transferred the gel to a membrane in Novex™ transfer buffer with 10% methanol either overnight at 100 mA or for 1-1.5 hours at 250 mA. […]

3T3/IGF-IR cell tumors = assay: Growth inhibition of 3T3/IGF-IR cell tumors; format: in vivo, athymic (nu/nu) mice
Procedure: We tested whether anti-IGF-IR antibodies of the invention would function to inhibit tumor growth. We induced tumors as described above (Example VIII) and when established, palpable tumors formed (i.e. 250 mm^3, within 6-9 days), we treated the mice with a single, 0.20 ml dose of antibody by intraperitoneal injection. We measured tumor size by Vernier calipers across two diameters every third day and calculated the volume using the formula (length×[width]^2)/2 using methods established by Geran, et al., “Protocols for screening chemical agents and natural products against animal tumors and other biological systems,” Cancer Chemother. Rep. 3:1-104.
Tumors were induced in nude mice as described in Example IX. Mice with established subcutaneous tumors of approximately 250 mm^3 were treated on days 1, 8, 15 and 22 with various amounts of 2.13.2 antibody (i.p.) or 7.5 mg/kg adriamycin (i.v.), either as single agents or in combination, as described in Example IX.
Tumors were induced in nude mice as described in Example IX. Mice with large established subcutaneous tumors of slightly less than 2000 mm^3 were treated on days 1 and 8 with various amounts of 2.13.2 antibody (i.p.) or 7.5 mg/kg adriamycin (i.v.), either as single agents or in combination, as described in Example IX. […] Control, antibody alone and adriamycin alone animal groups were terminated at day 5, when the tumor size exceeded 2000 mm^3.

COS7 IGF-IR = assay: Species crossreactivity by immunoprecipitation/Western blot; format: binding, old world monkey; conditions: immunoprecipitation, antibody 1 μg/ml
Procedure: as §1, §2

binding to human IGF-IR (IGF-IR): able to bind
Substance: 2.13.2: human IgG2κ monoclonal antibody specific for IGF-IR from hybridoma 2.13.2 (ATCC PTA-2788)
tumor cell growth (3T3/IGF-IR cell tumors; antibody i.p. on days 1, 8, 15 and 22, single agent): inhibits tumor cell growth
growth delay versus treatment with the antibody or adriamycin alone (3T3/IGF-IR cell tumors; combination with single dose 7.5 mg/kg adriamycin i.v.): 7 days
tumor cell growth in combination with adriamycin (3T3/IGF-IR cell tumors; days 1, 8, 15 and 22, with 7.5 mg/kg adriamycin i.v.): enhances inhibition of tumor cell growth
effect on effectiveness of adriamycin (3T3/IGF-IR cell tumors; single dose antibody with single dose 7.5 mg/kg adriamycin i.v.): enhanced the effectiveness of adriamycin
tumor growth (3T3/IGF-IR cell tumors; single treatment i.p., antibody alone): inhibited the growth
efficacy against large tumors in combination with adriamycin (3T3/IGF-IR cell tumors; tumors slightly less than 2000 mm^3, days 1 and 8, with 7.5 mg/kg adriamycin i.v.): highly efficacious
binding to COS7 IGF-IR (COS7 IGF-IR): able to bind
